Experiments:
[1] = system: Human Monocytic Leukemia MV4-11; test: Cell proliferation experiment (Alarm blue, 72 h, EC50); format: cell-based
Procedure, shortened: (§1)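 Duplicate wells per concentration, 5-fold dilution series, 72 h continuous exposure of log-phase cells; read-out Alamar blue fluorescence, EC50 derived by curve fit with minimum, maximum and slope terms.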

[2] = system: Human Colon Cancer HCT-116; test: as above; format: cell-based; details: Homo sapiens, HCT-116; HCT116 cells
Procedure, shortened: as §1

[3] = Homo sapiens, MV4-11, MV4;11 cells

| Structure (SMILES) | EC50 [1, 3] [nM] | EC50 [2] [nM] | EC50 ([1]; MV4;11 cells) [nM] |
| --- | --- | --- | --- |
| O=C1CCC(N2Cc3c(NC(=O)CCCNC(=O)c4ccc(Nc5ncc6c(n5)-c5ccc(Cl)cc5C(c5c(F)cccc5F)=NC6)cc4)cccc3C2=O)C(=O)N1 (stereo not drawn) [UB-180501] | > 1000 | 100 to 1000 |  |
| O=C1CCC(N2Cc3c(NC(=O)COCCCNC(=O)c4ccc(Nc5ncc6c(n5)-c5ccc(Cl)cc5C(c5c(F)cccc5F)=NC6)cc4)cccc3C2=O)C(=O)N1 (stereo not drawn) [UB-180502] | 10 to 100 | 100 to 1000 |  |
| O=C1CCC(N2Cc3c(NC(=O)COCCCCNC(=O)c4ccc(Nc5ncc6c(n5)-c5ccc(Cl)cc5C(c5c(F)cccc5F)=NC6)cc4)cccc3C2=O)C(=O)N1 (stereo not drawn) [UB-180503] | 100 to 1000 | 100 to 1000 |  |
| O=C1CCC(N2Cc3c(NC(=O)CCOCCOCCNC(=O)c4ccc(Nc5ncc6c(n5)-c5ccc(Cl)cc5C(c5c(F)cccc5F)=NC6)cc4)cccc3C2=O)C(=O)N1 (stereo not drawn) [UB-180504] | 10 to 100 | 100 to 1000 |  |
| O=C1CCC(N2Cc3c(NC(=O)COCCNC(=O)c4ccc(Nc5ncc6c(n5)-c5ccc(Cl)cc5C(c5c(F)cccc5F)=NC6)cc4)cccc3C2=O)C(=O)N1 (stereo not drawn) [UB-180509] | > 1000 | > 1000 |  |
| O=C1CCC(N2Cc3c(NC(=O)COCCOCCOCCNC(=O)c4ccc(Nc5ncc6c(n5)-c5ccc(Cl)cc5C(c5c(F)cccc5F)=NC6)cc4)cccc3C2=O)C(=O)N1 (stereo not drawn) [UB-180520] | 10 to 100 | > 1000 |  |
| O=C1CCC(N2Cc3c(NC(=O)CCOCCOCCOCCOCCNC(=O)c4ccc(Nc5ncc6c(n5)-c5ccc(Cl)cc5C(c5c(F)cccc5F)=NC6)cc4)cccc3C2=O)C(=O)N1 (stereo not drawn) [UB-180530] | 10 to 100 | > 1000 |  |
| O=C1CCC(N2Cc3c(NC(=O)COCCOCCOCCOCCNC(=O)c4ccc(Nc5ncc6c(n5)-c5ccc(Cl)cc5C(c5c(F)cccc5F)=NC6)cc4)cccc3C2=O)C(=O)N1 (stereo not drawn) [UB-180534] | 10 to 100 | > 1000 |  |
| O=C1CCC(N2Cc3c(NC(=O)COCCOCCNC(=O)c4ccc(Nc5ncc6c(n5)-c5ccc(Cl)cc5C(c5c(F)cccc5F)=NC6)cc4)cccc3C2=O)C(=O)N1 (stereo not drawn) [UB-180559] | 100 to 1000 | > 1000 |  |
| O=C1CCC(N2Cc3c(NC(=O)COCCOCCNC(=O)[C@]4(Cc5cccc(Nc6nccs6)n5)CC[C@@H](Oc5cccc(Cl)c5F)CC4)cccc3C2=O)C(=O)N1 (stereo partly drawn) [UB-180572] | > 1000 | > 1000 |  |
| O=C1CCC(N2Cc3c(NC(=O)COCCOCCOCCNC(=O)[C@]4(Cc5cccc(Nc6nccs6)n5)CC[C@@H](Oc5cccc(Cl)c5F)CC4)cccc3C2=O)C(=O)N1 (stereo partly drawn) [UB-180573] | > 1000 | > 1000 |  |
| O=C1CCC(N2Cc3c(NC(=O)CCCNC(=O)[C@]4(Cc5cccc(Nc6nccs6)n5)CC[C@@H](Oc5cccc(Cl)c5F)CC4)cccc3C2=O)C(=O)N1 (stereo partly drawn) [UB-180574] | > 1000 | > 1000 |  |
| O=C1CCC(N2Cc3c(NC(=O)CCOCCOCCOCCOCCNC(=O)[C@]4(Cc5cccc(Nc6nccs6)n5)CC[C@@H](Oc5cccc(Cl)c5F)CC4)cccc3C2=O)C(=O)N1 (stereo partly drawn) [UB-180575] | 10 to 100 | > 1000 |  |
| O=C1CCC(N2Cc3c(NC(=O)COCCNC(=O)[C@]4(Cc5cccc(Nc6nccs6)n5)CC[C@@H](Oc5cccc(Cl)c5F)CC4)cccc3C2=O)C(=O)N1 (stereo partly drawn) [UB-180577] | > 1000 | > 1000 |  |
| O=C1CCC(N2Cc3c(NC(=O)COCCOCCOCCOCCNC(=O)[C@]4(Cc5cccc(Nc6nccs6)n5)CC[C@@H](Oc5cccc(Cl)c5F)CC4)cccc3C2=O)C(=O)N1 (stereo partly drawn) [UB-180582] | 10 to 100 | > 1000 |  |
| O=C1CCC(N2Cc3c(NC(=O)COCCCCNC(=O)[C@]4(Cc5cccc(Nc6nccs6)n5)CC[C@@H](Oc5cccc(Cl)c5F)CC4)cccc3C2=O)C(=O)N1 (stereo partly drawn) [UB-180586] | > 1000 | > 1000 |  |
| O=C1CCC(N2Cc3c(NC(=O)COCCCNC(=O)[C@]4(Cc5cccc(Nc6nccs6)n5)CC[C@@H](Oc5cccc(Cl)c5F)CC4)cccc3C2=O)C(=O)N1 (stereo partly drawn) [UB-180588] | > 1000 | > 1000 |  |
| O=C1CCC(N2Cc3c(NC(=O)CCOCCOCCNC(=O)[C@]4(Cc5cccc(Nc6nccs6)n5)CC[C@@H](Oc5cccc(Cl)c5F)CC4)cccc3C2=O)C(=O)N1 (stereo partly drawn) [UB-180590] | > 1000 | > 1000 |  |
| Cc1sc2c(c1C)C(c1ccc(Cl)cc1)=N[C@@H](CC(=O)NCCOCCOCCOCCNCCC(=O)Nc1cccc3c1CN(C1CCC(=O)NC1=O)C3=O)c1nnc(C)n1-2 (stereo partly drawn) [UB-180635] |  | > 1000 |  |
| Cc1sc2c(c1C)C(c1ccc(Cl)cc1)=N[C@@H](CC(=O)NCCOCCOCCOCCNCCCC(=O)Nc1cccc3c1CN(C1CCC(=O)NC1=O)C3=O)c1nnc(C)n1-2 (stereo partly drawn) [UB-180648] |  | > 1000 |  |
| O=C1CCC(N2Cc3c(NC(=O)COCCNCCOCCOCCOCCNC(=O)c4ccc(Nc5ncc6c(n5)-c5ccc(Cl)cc5C(c5c(F)cccc5F)=NC6)cc4)cccc3C2=O)C(=O)N1 (stereo not drawn) [UB-180792] | 100 to 1000 |  |  |
| O=C1CCC(N2Cc3c(NC(=O)COCCNCCOCCOCCOCCNC(=O)[C@]4(Cc5cccc(Nc6nccs6)n5)CC[C@@H](Oc5cccc(Cl)c5F)CC4)cccc3C2=O)C(=O)N1 (stereo partly drawn) [UB-180793] | 100 to 1000 |  |  |
| O=C1CCC(N2Cc3c(NC(=O)COCCOCCOCCNCCNC(=O)c4ccc(Nc5ncc6c(n5)-c5ccc(Cl)cc5C(c5c(F)cccc5F)=NC6)cc4)cccc3C2=O)C(=O)N1 (stereo not drawn) [UB-180794] | > 1000 |  |  |

| Structure (SMILES) | EC50 [1, 3] [nM] | EC50 [2] [nM] | EC50 ([1]; MV4;11 cells) [nM] |
| --- | --- | --- | --- |
| O=C1CCC(N2Cc3c(NC(=O)COCCOCCOCCNCCNC(=O)[C@]4(Cc5cccc(Nc6nccs6)n5)CC[C@@H](Oc5cccc(Cl)c5F)CC4)cccc3C2=O)C(=O)N1 (stereo partly drawn) [UB-180795] | 100 to 1000 |  |  |
| O=C1CCC(N2Cc3c(NC(=O)CCOCCOCCOCCNCCNC(=O)c4ccc(Nc5ncc6c(n5)-c5ccc(Cl)cc5C(c5c(F)cccc5F)=NC6)cc4)cccc3C2=O)C(=O)N1 (stereo not drawn) [UB-180796] | > 1000 |  |  |
| O=C1CCC(N2Cc3c(NC(=O)CCOCCOCCOCCNCCNC(=O)[C@]4(Cc5cccc(Nc6nccs6)n5)CC[C@@H](Oc5cccc(Cl)c5F)CC4)cccc3C2=O)C(=O)N1 (stereo partly drawn) [UB-180797] | > 1000 |  |  |
| O=C1CCC(N2Cc3c(NC(=O)COCCOCCOCCNCCOCCNC(=O)c4ccc(Nc5ncc6c(n5)-c5ccc(Cl)cc5C(c5c(F)cccc5F)=NC6)cc4)cccc3C2=O)C(=O)N1 (stereo not drawn) [UB-180798] | 100 to 1000 |  |  |
| O=C1CCC(N2Cc3c(NC(=O)COCCOCCOCCNCCOCCNC(=O)[C@]4(Cc5cccc(Nc6nccs6)n5)CC[C@@H](Oc5cccc(Cl)c5F)CC4)cccc3C2=O)C(=O)N1 (stereo partly drawn) [UB-180799] | 100 to 1000 |  |  |
| O=C1CCC(N2Cc3c(NC(=O)CCOCCOCCOCCNCCOCCNC(=O)c4ccc(Nc5ncc6c(n5)-c5ccc(Cl)cc5C(c5c(F)cccc5F)=NC6)cc4)cccc3C2=O)C(=O)N1 (stereo not drawn) [UB-180803] | 100 to 1000 |  |  |
| O=C1CCC(N2Cc3c(NC(=O)CCNCCOCCOCCOCCOCCNC(=O)c4ccc(Nc5ncc6c(n5)-c5ccc(Cl)cc5C(c5c(F)cccc5F)=NC6)cc4)cccc3C2=O)C(=O)N1 (stereo not drawn) [UB-180807] | 100 to 1000 |  |  |
| O=C1CCC(N2Cc3c(NC(=O)CCNCCOCCOCCOCCOCCNC(=O)[C@]4(Cc5cccc(Nc6nccs6)n5)CC[C@@H](Oc5cccc(Cl)c5F)CC4)cccc3C2=O)C(=O)N1 (stereo partly drawn) [UB-180808] | 100 to 1000 |  |  |
| O=C1CCC(N2Cc3c(NC(=O)CNCCOCCOCCNC(=O)c4ccc(Nc5ncc6c(n5)-c5ccc(Cl)cc5C(c5c(F)cccc5F)=NC6)cc4)cccc3C2=O)C(=O)N1 (stereo not drawn) [UB-180809] | 100 to 1000 |  |  |
| O=C1CCC(N2Cc3c(NC(=O)CNCCOCCN4CCN(CCNC(=O)c5ccc(Nc6ncc7c(n6)-c6ccc(Cl)cc6C(c6c(F)cccc6F)=NC7)cc5)CC4)cccc3C2=O)C(=O)N1 (stereo not drawn) [UB-180811] | 100 to 1000 |  |  |
| O=C1CCC(N2Cc3c(NC(=O)CNCCOCCN4CCN(CCNC(=O)[C@]5(Cc6cccc(Nc7nccs7)n6)CC[C@@H](Oc6cccc(Cl)c6F)CC5)CC4)cccc3C2=O)C(=O)N1 (stereo partly drawn) [UB-180812] |  |  | 100 to 1000 |
| CC[C@@H]1C(=O)N(C)c2cnc(Nc3ccc(C(=O)NCCOCCOCCOCCOCCNCCC(=O)Nc4cccc5c4CN(C4CCC(=O)NC4=O)C5=O)cc3OC)nc2N1C1CCCC1 (stereo partly drawn) [UB-180813] | 10 to 100 |  |  |
| CC[C@@H]1C(=O)N(C)c2cnc(Nc3ccc(C(=O)NCCOCCOCCNCC(=O)Nc4cccc5c4CN(C4CCC(=O)NC4=O)C5=O)cc3OC)nc2N1C1CCCC1 (stereo partly drawn) [UB-180814] | 10 to 100 |  |  |
| CC[C@@H]1C(=O)N(C)c2cnc(Nc3ccc(C(=O)NCCNCCOCCOCCOCC(=O)Nc4cccc5c4CN(C4CCC(=O)NC4=O)C5=O)cc3OC)nc2N1C1CCCC1 (stereo partly drawn) [UB-180815] | 10 to 100 |  |  |
| CC[C@@H]1C(=O)N(C)c2cnc(Nc3ccc(C(=O)NCCNCCOCCOCCOCCC(=O)Nc4cccc5c4CN(C4CCC(=O)NC4=O)C5=O)cc3OC)nc2N1C1CCCC1 (stereo partly drawn) [UB-180820] | 10 to 100 |  |  |
| O=C1CCC(N2Cc3c(NC(=O)CCNCCOC4CCN(CCOCCNC(=O)c5ccc(Nc6ncc7c(n6)-c6ccc(Cl)cc6C(c6c(F)cccc6F)=NC7)cc5)CC4)cccc3C2=O)C(=O)N1 (stereo not drawn) [UB-180821] | > 1000 |  |  |
| O=C1CCC(N2Cc3c(NC(=O)CCNCCn4cc(COCCNC(=O)c5ccc(Nc6ncc7c(n6)-c6ccc(Cl)cc6C(c6c(F)cccc6F)=NC7)cc5)nn4)cccc3C2=O)C(=O)N1 (stereo not drawn) [UB-180822] | > 1000 |  |  |
| CC[C@@H]1C(=O)N(C)c2cnc(Nc3ccc(C(=O)NC4CCN(CCOCCN(CC(=O)Nc5cccc6c5CN(C5CCC(=O)NC5=O)C6=O)C(=O)OC)CC4)cc3OC)nc2N1C1CCCC1 (stereo partly drawn) [UB-180833] | 10 to 100 |  |  |
| CC[C@@H]1C(=O)N(C)c2cnc(Nc3ccc(C(=O)NC4CCN(CCOCCN(C=O)CC(=O)Nc5cccc6c5CN(C5CCC(=O)NC5=O)C6=O)CC4)cc3OC)nc2N1C1CCCC1 (stereo partly drawn) [UB-180834] | 10 to 100 |  |  |
| CC[C@@H]1C(=O)N(C)c2cnc(Nc3ccc(C(=O)NC4CCN(CCOCCN(CC(=O)Nc5cccc6c5CN(C5CCC(=O)NC5=O)C6=O)C(C)=O)CC4)cc3OC)nc2N1C1CCCC1 (stereo partly drawn) [UB-180835] | 10 to 100 |  |  |
| CN(CCOCCOCCOCCNC(=O)[C@]1(Cc2cccc(Nc3nccs3)n2)CC[C@@H](Oc2cccc(Cl)c2F)CC1)CC(=O)Nc1cccc2c1CN(C1CCC(=O)NC1=O)C2=O (stereo partly drawn) [UB-180836] | 100 to 1000 |  |  |
| CC[C@@H]1C(=O)N(C)c2cnc(Nc3ccc(C(=O)NC4CCN(CCOCCN(CC(=O)Nc5cccc6c5CN(C5CCC(=O)NC5=O)C6=O)C(N)=O)CC4)cc3OC)nc2N1C1CCCC1 (stereo partly drawn) [UB-180840] | 10 to 100 |  |  |
